From patent US8822439B2, “Glucocorticoid receptor agonists” (Pfizer Inc., priority 2007, dated 2014)

Tests used:
[1] = tested on: TNF-α release from LPS stimulated isolated human peripheral mononuclear cells (PBMC); experiment: Inhibition of TNF-α release from LPS stimulated isolated human PBMC; type: cell-based; conditions: 1 h preincubation, 18 hours after LPS, ELISA
Experimental: (§1) The anti-inflammatory activity of the compounds against human leukocytes in vitro was also evaluated by determining inhibition of tumour necrosis factor-α (TNF-α) release from lipopolysaccharide (LPS) stimulated human whole blood (WB) and isolated human peripheral mononuclear cells (PBMC).
(§2) Peripheral venous blood from healthy, non-medicated donors was collected using ethylenediaminetetraacetic acid (EDTA) as the anti-coagulant. For PBMC preparation, samples of blood were diluted 1:1 with sterile phosphate buffered saline and then separated using ACCUSPIN™ System-Histopaque®-1077 tubes (Sigma-Aldrich, St Louis, Mo.), centrifuged at 400 g for 35 minutes. Buffy coat cells were removed into PBS, centrifuged at 200 g for 10 minutes and re-suspended in PBMC assay buffer (Hanks Balanced Salt Solution, 0.28% [w/v] 4-[2-hydroxyethyl]-1-piperazineethanesulfonic acid [HEPES], 0.01% [w/v] low-endotoxin bovine serum albumin [BSA]. A differential white cell count was performed and PBMC's diluted to 1×10^6 lymphocytes per ml in PBMC assay buffer.
(§3) Test compounds were dissolved in DMSO and diluted in PBMC assay buffer (final DMSO concentration 1%) to cover an appropriate concentration range, e.g 0.001 nM to 10000 nM. Samples of test compound solution or vehicle (20 μl) were added into 96-well tissue culture treated plates (Corning) and PBMC (160 μl) or WB (160 μl) added to each well. The assay mixtures were incubated at 37° C. for 1 h in a humidified incubator containing an atmosphere of air supplemented with 5% CO2 before adding LPS (20 μl of 100 ng/ml for PBMC or 1 μg/ml for WB). Plates were returned to the incubator for a further 18 hours, and then centrifuged before recovery of samples of supernatant. TNF-α in the samples was determined using an enzyme-linked immunosorbent assay (ELISA) (Invitrogen kit no CHC-1754; Invitrogen Carlsbad, Calif.) and following the manufacturers instructions. Dose response curves were constructed from which IC50 values were calculated.

[2] = tested on: LPS-induced lung neutrophils; experiment: Inhibition of LPS-induced lung neutrophilia in rats after intratracheal dosing; type: in vivo; conditions: male CD Sprague-Dawley rats; single intratracheal dose 4 hours before nebulised LPS; BAL 4 hours after LPS
Experimental: The pharmacological activity may be assessed in in vivo models of lung inflammation such as the one described below. The primary objective of this procedure was to determine the anti-inflammatory activity of the compounds of formula (I), when administered directly into the lungs via the trachea.
Test compounds were dissolved, or prepared as fine suspensions, in phosphate buffered saline containing 0.5% (w/v) Tween-80 to provide a range of dose levels. Male CD Sprague-Dawley rats (300-450 g) were randomised to study groups of n=6 and then briefly anaesthetised in an anaesthetic chamber with 5% Isoflurane in 3 l/min O2. One of the test compound formulations or dose vehicle (100 μl) was injected directly into the trachea of each anaesthetised rat using a Hamilton syringe. The animals were then allowed to recover from the anaesthetic. Dependent on the study design, animals received either a single dose of compound or were treated once daily on 4 successive days. Four hours after the dosing (or 4 hours after the final dose in repeat dose studies) the rats were placed into a chamber (300×300×450 mm), connected to an ultrasonic nebuliser and a small animal rodent ventilator set to the maximum tidal volume and rate (5 ml, 160 strokes/min). 10 ml of 1 mg/ml LPS (Sigma-Aldrich, L2630) dissolved in saline, pre-warmed to 37° C., was nebulised into the chamber. After 15 minutes the ventilator and nebuliser were turned off and the animals remained in the chamber to breathe the mist for a further 15 minutes before being returned to the home cage.
Four hours after the end of the LPS treatment the animals were terminally anaesthetised with 1 ml/kg Pentoject IP. The trachea was cannulated and the lungs lavaged with 4×2.5 ml PBS containing 2.6 mM EDTA and the lavage fluid collected. 1 ml bronchioalveolar lavage (BAL) was added to 125 μl of 40% bovine serum albumen (BSA) and the cellular count determined using an Advia 120 haematology system (Siemens). In repeat dose studies, bodyweights and weights of adrenal glands and thymus were also determined as these are known to decrease in response to glucocorticoid agonist exposure and have been used to assess the systemic effects of glucocorticoid agonists. In some repeat dose experiments, a terminal blood sample was collected from each rat, serum and plasma prepared, and concentrations of corticosterone in serum and ACTH in plasma were determined as additional markers of systemic glucocorticoid agonist effect. In some studies a known glucocorticoid agonist, fluticasone propionate, was administered to separate groups of rats as a positive control.
Separate dose response curves were constructed, for inhibition of LPS-induced lung neutrophils, and each marker of glucocorticoid agonist systemic effect. Half maximal effect doses (ED50) values were estimated from the fitted curves. The ED50 values for effect on systemic markers of glucocorticoid agonist activity were also divided by the ED50 for inhibition of lung neutrophilia in order to determine values for therapeutic index (TI).

[3] = tested on: TNF-α release from LPS stimulated human whole blood (WB); experiment: Inhibition of TNF-α release from LPS stimulated human whole blood; type: cell-based; conditions: 1 h preincubation, 18 hours after LPS, ELISA
Experimental: as §1, §2, §3

Compound | IC50 [1] [nM] | ED50 for inhibition of lung neutrophilia [2] [µg] | IC50 [3] [nM]
C[C@]12C=CC(=O)C=C1[C@@H](F)C[C@H]1[C@@H]3C[C@H]4O[C@@H](c5ccc(Cc6ccccc6)cc5)O[C@@]4(C(=O)CO)[C@@]3(C)C[C@H](O)[C@@]12F [Example 1, (4aS,4bR,5S,6aS,6bS,8R,9aR,10aS,10bS,12S)-8-(4-Benzylphenyl)-4b,12-difluoro-6b-glycoloyl-5-hydroxy-4a,6a-dimethyl-4a,4b,5,6,6a,6b,9a,10,10a,10b,11,12-dodecahydro-2H-naphtho[2′,1′:4,5]indeno[1,2-d][1,3]dioxol-2-one] | 0.098 | 0.27 | 17
C[C@]12C=CC(=O)C=C1[C@@H](F)C[C@H]1[C@@H]3C[C@H]4O[C@@H](c5ccc(CSc6ccc(O)cc6)cc5)O[C@@]4(C(=O)CO)[C@@]3(C)C[C@H](O)[C@@]12F [Example 3, (4aS,4bR,5S,6aS,6bS,8R,9aR,10aS,10bS,12S)-4b,12-Difluoro-6b-glycoloyl-5-hydroxy-8-(4-{[(4-hydroxyphenyl)thio]methyl}phenyl)-4a 0.6a-dimethyl-4a,4b,5,6,6a,6b,9a,10,10a,10b,11,12-dodecahydro-2H-naphtho[2′,1′:4,5]indeno[1,2-d][1,3]dioxol-2-one] | 0.061 | 0.45 | 24
C[C@]12C=CC(=O)C=C1[C@@H](F)C[C@H]1[C@@H]3C[C@H]4O[C@@H](c5ccc(CSc6ccc(O)c(Cl)c6)cc5)O[C@@]4(C(=O)CO)[C@@]3(C)C[C@H](O)[C@@]12F [Example 5, (4aS,4bR,5S,6aS,6bS,8R,9aR,10aS,10bS,12S)-8-(4-{[(3-chloro-4-hydroxyphenyl)thio]methyl}phenyl)-4-b,12-difluoro-6b-glycoloyl-5-hydroxy-4a,6a-dimethyl-4a,4b,5,6,6a,6b,9a,10,10a,10b. 11,12-dodecahydro-2H-naphtho[2′,1′:4.5]indeno[1,2-d][1,3]dioxol-2-one] | 0.032 | 3.6 | 8.73
C[S+]([O-])c1cccc(Sc2ccc([C@@H]3O[C@@H]4C[C@H]5[C@@H]6C[C@H](F)C7=CC(=O)C=C[C@]7(C)[C@@]6(F)[C@@H](O)C[C@]5(C)[C@]4(C(=O)CO)O3)cc2)c1 (stereo partly drawn) [Example 4, (4aS,4bR,5S,6aS,6bS,8R,9aR,10aS,10bS,12S)-4b,12-difluoro-6b-glycoloyl-5-hydroxy-4a,6a-dimethyl-8-(4-{[3-(methylsulfinyl)phenyl]thio}phenyl)-4a,4b,5,6,6a,6b,9a,10,10a,10b,11,12-dodecahydro-2H-naphtho[2′,1′:4.5]indeno[1,2-d][1,3]dioxol-2-one] | 0.059 | 2.00 | 40
CSc1cccc(Sc2ccc([C@@H]3O[C@@H]4C[C@H]5[C@@H]6C[C@H](F)C7=CC(=O)C=C[C@]7(C)[C@@]6(F)[C@@H](O)C[C@]5(C)[C@]4(C(=O)CO)O3)cc2)c1 [Example 2, (4aS,4bR,5S,6aS,6bS,8R,9aR,10aS,10bS,12S)-4b,12-difluoro-6b-glycoloyl-5-hydroxy-4a 0.6a-dimethyl-8-(4-{[3-(methylthio)phenyl]thio}phenyl)-4a,4b,5,6,6a,6b,9a,10,10a,10b,11.,12-dodecahydro-2H-naphtho[2′,1′:4,5]indeno[1,2-d][1,3]dioxol-2-one] | 0.092 | 0.18 | 49
